Laboratory results: ChEMBL document CHEMBL6115029, “Discovery of Daraxonrasib (RMC-6236), a Potent and Orally Bioavailable RAS(ON) Multi-selective, Noncovalent Tri-complex Inhibitor for the Treatment of Patients with Multiple RAS-Addicted Cancers” (J Med Chem, 2025)
≈ marks a conversion by molar mass, not a printed value.

Experiments:
[1] = Oral bioavailability in female BALB/c mouse at 10 mg/kg measured after 24 hrs by LC-MS/MS analysis; format: ADME, organism-based; details: in vivo
[2] = test system: A-375; assay: Cytotoxicity against human A-375 cells assessed as reduction in cell viability incubated for 120 hrs by CellTiter-Glo luminescence assay; format: functional, cell-based; details: A-375, 120 h
[3] = test system: NCI-H358; assay: Cytotoxicity against human NCI-H358 cells harboring KRAS G12C mutant cultured as 2D cells assessed as reduction in cell viability incubated for 120 hrs by CellTiter-Glo luminescence assay; format: functional, cell-based; details: NCI-H358, 120 h
[4] = Apparent permeability across apical to basolateral side in human Caco-2 cells at 5 uM incubated for 2 hrs by LC-MS/MS analysis; format: ADME, cell-based
[5] = Inhibition of 6His-tagged KRAS G12D mutant(1 to 169 residues)/GST-tagged GMPPNP-bound BRAF RBD (155 to 229 reisudes)/Cyclophilin A (unknown origin) tri-complex protein-protein interaction incubated for 3 hrs by TR-FERT based disruption assay; design: species or system Homo sapiens
[6] = Inhibition of 6His-tagged wildtype KRAS (1 to 169 residues)/GST-tagged GMPPNP-bound BRAF RBD (155 to 229 reisudes)/Cyclophilin A (unknown origin) tri-complex protein-protein interaction incubated for 3 hrs by TR-FERT based disruption assay; design: species or system Homo sapiens
[7] = Efflux ratio of apparent permeability in human Caco-2 cells at 5 uM incubated for 2 hrs by LC-MS/MS analysis; format: ADME, cell-based
[8] = Clearance in female BALB/c mouse at 1 mg/kg, iv measured after 24 hrs by LC-MS/MS analysis; format: ADME, organism-based; details: in vivo
[9] = Inhibition of 6His-tagged KRAS G12V mutant(1 to 169 residues)/GST-tagged GMPPNP-bound BRAF RBD (155 to 229 reisudes)/Cyclophilin A (unknown origin) tri-complex protein-protein interaction incubated for 3 hrs by TR-FERT based disruption assay; design: species or system Homo sapiens
[10] = test system: ASPC1; assay: Cytotoxicity against human ASPC1 cells harboring KRAS G12D mutant cultured as 2D cells assessed as reduction in cell viability incubated for 120 hrs by CellTiter-Glo luminescence assay; format: functional, cell-based; details: ASPC1, 120 h
[11] = Kinetic solubility of compound in PBS at pH 7.4 measured after 5 hrs by UV analysis; format: physicochemical; details: read-out: Kinetic_solubility
[12] = Half-life in female BALB/c mouse at 1 mg/kg, iv measured after 24 hrs by LC-MS/MS analysis; format: ADME, organism-based; details: in vivo
[13] = Metabolic stability in mouse liver microsomes assessed as half-life at 2 uM measured upto 60 mins in presence of NADPH by LC-MS/MS analysis; format: ADME, Microsome
[14] = test system: CAPAN-1; assay: Cytotoxicity against human CAPAN-1 cells harboring KRAS G12V mutant cultured as 2D cells assessed as reduction in cell viability incubated for 120 hrs by CellTiter-Glo luminescence assay; format: functional, cell-based; details: CAPAN-1, 120 h
[15] = Inhibition of ERK1/2 phosphorylation in human NCI-H358 cells harboring KRAS G12C mutant incubated for 4 hrs by AlphaLISA assay; format: cell-based; details: NCI-H358, 4 h
[16] = Inhibition of ERK1/2 phosphorylation in human ASPC1 cells harboring KRAS G12D mutant incubated for 4 hrs by AlphaLISA assay; format: cell-based; details: ASPC1, 4 h
[17] = biological target: Peptidyl-prolyl cis-trans isomerase A (Homo sapiens, UniProt P62937); assay: Binding affinity to Avi-tagged Cyclophilin A (unknown origin) assessed as dissociation constant by SPR analysis
Peptidyl-prolyl cis-trans isomerase A, sequence (P62937 whole entry): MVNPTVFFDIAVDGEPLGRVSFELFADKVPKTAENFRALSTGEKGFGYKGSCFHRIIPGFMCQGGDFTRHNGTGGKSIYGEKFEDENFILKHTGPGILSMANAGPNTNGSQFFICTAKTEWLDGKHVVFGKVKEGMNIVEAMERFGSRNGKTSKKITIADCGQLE

[18] = Inhibition of ERK1/2 phosphorylation in human CAPAN-1 cells harboring KRAS G12V mutant incubated for 4 hrs by AlphaLISA assay; format: cell-based; details: CAPAN-1, 4 h
[19] = Inhibition of 6His-tagged KRAS G12C mutant(1 to 169 residues)/GST-tagged GMPPNP-bound BRAF RBD (155 to 229 reisudes)/Cyclophilin A (unknown origin) tri-complex protein-protein interaction incubated for 3 hrs by TR-FERT based disruption assay; design: species or system Homo sapiens
[20] = Lipophilicity, logD of compound at pH 7.4 by Agilent 1290 II uPLC analysis; format: physicochemical; details: buffer
[21] = Oral bioavailability in female BALB/c mouse blood at 10 mg/kg measured after 24 hrs by LC-MS/MS analysis; format: ADME, organism-based
[22] = Clearance in female BALB/c mouse blood at 1 mg/kg, iv measured after 24 hrs by LC-MS/MS analysis; format: ADME, organism-based
[23] = test system: NCI-H1975; assay: Cytotoxicity against human NCI-H1975 cells harboring wildtype KRAS cultured as 2D cells assessed as reduction in cell viability incubated for 120 hrs by CellTiter-Glo luminescence assay; format: functional, cell-based; details: NCI-H1975, 120 h
[24] = Clearance in female BALB/c mouse plasma at 1 mg/kg, iv measured after 24 hrs by LC-MS/MS analysis; format: ADME, organism-based
[25] = Oral bioavailability in female BALB/c mouse plasma at 10 mg/kg measured after 24 hrs by LC-MS/MS analysis; format: ADME, organism-based

SMILES	bioavailability [1] [%]	EC50 [2] [nM]	EC50 [3] [nM]	Papp A→B at 2 h, 5 µM [4] [×10⁻⁶ cm/s]	IC50 [5] [nM]	IC50 [6] [nM]	efflux ratio at 2 h, 5 µM [7]	clearance [8] [mL/min/kg]	IC50 [9] [nM]	EC50 [10] [nM]	solubility kinetic at 5 h [11] [µM]	half-life at 2 µM [13] [min]	EC50 [14] [nM]	EC50 [15] [nM]	EC50 [16] [nM]	Kd [17] [nM]	EC50 [18] [nM]	IC50 [19] [nM]	logD [20]	EC50 [23] [nM]	other results
CCn1c(-c2cccnc2[C@H](C)OC)c2c3cc(ccc31)-c1csc(n1)C[C@H](NC(=O)[C@H]1[C@@H]3COC[C@@H]31)C(=O)N1CCC[C@H](N1)C(=O)OCC(C)(C)C2	49	> 10000	30	2.3	346	139	7.5	6.67	84	92	15 (≈ 11.1 µg/mL)	26	69	26	146	2420	11	51			half-life [12]: 126 min
CCn1c(-c2cc(N3CCN(C4CC4)CC3)cnc2[C@H](C)OC)c2c3cc(ccc31)-c1csc(n1)C[C@H](NC(=O)[C@H]1C[C@@H]1C)C(=O)N1CCC[C@H](N1)C(=O)OCC(C)(C)C2		> 10000	3.4	2.2	277	117			64	13.9	5 (≈ 4.19 µg/mL)		8.1	4.9	15.2	396	1.3	50	5.3		
CCn1c(-c2cc(N3CC4CC(C3)N4C)cnc2[C@H](C)OC)c2c3cc(ccc31)-c1csc(n1)C[C@H](NC(=O)[C@H]1C[C@@H]1C)C(=O)N1CCC[C@H](N1)C(=O)OCC(C)(C)C2		2980	1.7	0.2	272	116	96		71	5.3	130 (≈ 107 µg/mL)	> 120	2.1	2.1	4.4	23	0.5	53	3.9		bioavailability [21]: 5.7%; clearance [22]: 16.7 mL/min/kg
CCn1c(-c2cc(N3CCN(C)CC3)cnc2[C@H](C)OC)c2c3cc(ccc31)-c1csc(n1)C[C@H](NC(=O)[C@H]1CCO1)C(=O)N1CCC[C@H](N1)C(=O)OCC(C)(C)C2		6950	22.3	0.4	435	138	62		77	45.2	117 (≈ 95.1 µg/mL)	> 120	14.2	10.6	50.1		2	50	4.3	7.9	
CCn1c(-c2cc(N3CCN(C4COC4)CC3)cnc2[C@H](C)OC)c2c3cc(ccc31)-c1csc(n1)C[C@H](NC(=O)[C@H]1C[C@@H]1C)C(=O)N1CCC[C@H](N1)C(=O)OCC(C)(C)C2		> 10000	0.8	0.6	249	103	12		55	4.1	56 (≈ 47.8 µg/mL)	> 120	1.8	2.9	4.2	77	0.7	40		0.9	clearance [24]: 51.7 mL/min/kg; bioavailability [25]: 27%; bioavailability [21]: 49%; clearance [22]: 6.67 mL/min/kg
CCn1c(-c2cccnc2[C@H](C)OC)c2c3cc(ccc31)-c1csc(n1)C[C@H](NC(=O)[C@H](C(C)C)N(C)C(=O)N(C)C)C(=O)N1CCC[C@H](N1)C(=O)OCC(C)(C)C2	0.8	5820	6	0.94	548	108	2.9	55			49 (≈ 39.9 µg/mL)	5	18	11	42	468	3	58		26	IC50 [10]: 75 nM; half-life [12]: 42 min
CCn1c(-c2cccnc2[C@H](C)OC)c2c3cc(ccc31)-c1csc(n1)C[C@H](NC(=O)[C@H](C(C)C)N(C)C(=O)OC)C(=O)N1CCC[C@H](N1)C(=O)OCC(C)(C)C2		5420	35	0.08	3070	742	7.4				< 2	11	28	63	326	184	8	302			IC50 [10]: 400 nM
CCn1c(-c2cc(N3CCN(C)CC3)cnc2[C@H](C)OC)c2c3cc(ccc31)-c1csc(n1)C[C@H](NC(=O)[C@H]1[C@@H]3COC[C@@H]31)C(=O)N1CCC[C@H](N1)C(=O)OCC(C)(C)C2		9450	0.4	0.3	151	69	43		40	2.1	23 (≈ 19.3 µg/mL)	> 120	1.1	1.7	2.4	60	0.3	29	4.1	0.4	
CCn1c(-c2cccnc2[C@H](C)OC)c2c3cc(ccc31)-c1csc(n1)C[C@H](NC(=O)C1CC1)C(=O)N1CCC[C@H](N1)C(=O)OCC(C)(C)C2	53	5950	403	4.3	1950	615	1.6	5	301	852	15 (≈ 10.5 µg/mL)	94	485	166	3410	18700	147	208	4.8	188	half-life [12]: 120 min
CCn1c(-c2cccnc2[C@H](C)OC)c2c3cc(ccc31)-c1csc(n1)C[C@H](NC(=O)[C@H](C(C)C)N(C)C(=O)N1CCC1)C(=O)N1CCC[C@H](N1)C(=O)OCC(C)(C)C2	2.2	4400	7	0.09	491	107	13.6	65			< 2	9	11	1	22	293	2	35		28	IC50 [10]: 37 nM; half-life [12]: 48 min
CCn1c(-c2cccnc2[C@H](C)OC)c2c3cc(ccc31)-c1csc(n1)C[C@H](NC(=O)[C@H]1CCO1)C(=O)N1CCC[C@H](N1)C(=O)OCC(C)(C)C2	44	> 10000	429	3.1	2310	628	1.7	3.33	334	1640	5 (≈ 3.57 µg/mL)	44	615	952	> 10000	6520	124	224	4.3	402	half-life [12]: 96 min
